Assay results taken from patent US12448400B2, “KRAS G12D modulating compounds” (priority 2023, dated 2025).

Columns and labels:
[1] = Rat oral pharmacokinetics; set-up: species or system Male Sprague Dawley rats; conditions: male, Sprague Dawley, in vivo
Procedure: Rat Oral Pharmacokinetics
Test compounds were formulated in solution formulations (10 w/v % Sulfobutylether-p-cyclodextrin; 90% w/v % 50 mM Citrate Buffer) and administered orally to a group of three Male Sprague Dawley rats. The animals were fasted overnight prior to dose administration and up to four hours after dosing. The test articles were administrated by oral gavage at a dose volume of 5 mL-eq/kg.
(§1) Blood samples were collected at predose and 0.25, 0.5, 1, 2, 4, 6, 8, 12, 24, 48 and 72 hours post dose into K2EDTA tubes and stored on wet ice until processed. Whole blood was processed to plasma by centrifugation (3500 rpm for 10 minutes at 5° C.) within 30 minutes of collection. Plasma samples were placed in Micronic 96 well tubes and stored at −80° C. until transferred. Plasma concentration of the test compounds was determined by LC-MS/MS. Pharmacokinetic parameters were estimated using non-compartment model analysis. The maximum observed concentration (Cmax) and area under the curve from time of dosing to last measured concentration (AUClast) were calculated and reported.

GP2D (KRAS G12D) cells = assay: 2D cell viability assay (CellTiter-Glo); format: cell-based; conditions: 96 h; GP2D cells, 4 days, CellTiter-Glo luminescence; read-out: G12D 2D EC50
Outline: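 GP2D (KRAS G12D) cells, 1000/well in RPMI + 10% FBS, were plated onto compound (1:3 DMSO series) and grown 4 days at 37 °C, 5% CO2 in 2D. CellTiter-Glo luminescence was read; EC50 is the concentration giving 50% signal decrease, from sigmoidal fit.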

GDP-loaded KRAS G12D = GDP-loaded KRAS G12D (Homo sapiens, UniProt P01116, G12D); assay: KRAS G12D (GDP) biochemical assay, TR-FRET probe displacement; format: binding; conditions: 0.5 nM enzyme, 30 min pre-incubation, 2 h incubation, TR-FRET ratio; read-out: G12D IC50
Outline: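 Compound pre-incubated 30 min with GDP-loaded KRAS G12D in 50 mM Hepes pH 7.4, 150 mM NaCl, 5 mM MgCl2, 0.005% Tween-20, then Eu-streptavidin and TR-FRET probe added. After 2 h at room temperature, TR-FRET ratio read; IC50 is 50% ratio decrease, sigmoidal fit.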

[2] = Mouse oral cassette pharmacokinetics; format: in vivo, male CD-1 mice; conditions: male, CD-1, mouse, in vivo, po, 30 mg/kg
Procedure: Mouse Oral Cassette Pharmacokinetics
Test compounds (1-3 compounds per cassette) were formulated in solution formulations (10 w/v % Captisol in 50 mM Citrate buffer) and administered orally at 30 mg-eq./kg each compound to a group of four male CD-1 mice. The test articles were administrated by oral gavage at a dose volume of 10 mL-eq/kg.
as §1, with “at” for “at predose and 0.25,”, “3,” for “2, 4,”, “8,” for “8, 12, 24, 48”, “24” for “72”

Chain of GDP-loaded KRAS G12D (P01116 1-188 isoform P01116-2 G12D): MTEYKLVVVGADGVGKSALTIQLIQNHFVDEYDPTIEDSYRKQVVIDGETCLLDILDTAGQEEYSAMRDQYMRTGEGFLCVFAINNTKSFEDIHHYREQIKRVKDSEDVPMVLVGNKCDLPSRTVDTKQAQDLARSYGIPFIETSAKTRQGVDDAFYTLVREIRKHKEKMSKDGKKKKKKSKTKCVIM

Compound	Rat Parent AUC ([1]; 7.5 mg/kg) [µM·h]	EC50 (GP2D (KRAS G12D) cells) [nM]	IC50 (GDP-loaded KRAS G12D) [nM]	Mouse Parent AUC [2] [µM·h]	further results
C#Cc1c(F)ccc2cc(N)nc(-c3c(F)c4c5c(nc(OC[C@@]67CCCN6C[C@H](F)C7)nc5c3F)N3C[C@H]5CC[C@@H]([C@H]3CCC4)N5Cc3oc(=O)oc3C)c12 (atropisomer, axis not shown; (aR)) [Example 73, 4-(((1S,4R,11S,15aR)-11-(3-amino-8-ethynyl-7-fluoroisoquinolin-1-yl)-10,12-difluoro-8-(((2R,7aS)-2-fluorotetrahydro-1H-pyrrolizin-7a(5H)-yl)methoxy)-2,3,4,5,13,14,15,15a-octahydro-1H-1,4-epiminoazepino[1′,2′:1,8]azocino[2,3,4-de]quinazolin-16-yl)methyl)-5-methyl-1,3-dioxol-2-one]	0.3	0.82			Rat Parent % F ([1]; 7.5 mg/kg): 2%
CCc1c(F)ccc2cc(O)cc(-c3c(F)c4c5c(nc(OC[C@@]67CCCN6C[C@H](F)C7)nc5c3F)N3C[C@H]5CC[C@@H]([C@H]3CCC4)N5Cc3oc(=O)oc3C)c12 (atropisomer, axis not shown; (aR)) [Example 77, 4-(((1S,4R,11R,15aR)-11-(8-ethyl-7-fluoro-3-hydroxynaphthalen-1-yl)-10,12-difluoro-8-(((2R,7aS)-2-fluorotetrahydro-1H-pyrrolizin-7a(5H)-yl)methoxy)-2,3,4,5,13,14,15,15a-octahydro-1H-1,4-epiminoazepino[1′,2′:1,8]azocino[2,3,4-de]quinazolin-16-yl)methyl)-5-methyl-1,3-dioxol-2-one]	0.43	0.26			
C#Cc1c(F)ccc2cc(N)nc(-c3c(F)c4c5c(nc(OC[C@@]67CCCN6C[C@H](F)C7)nc5c3F)N3C[C@H]5CC[C@@H]([C@H]3CCC4)N5Cc3oc(=O)oc3CC)c12 (atropisomer, axis not shown; (aR)) [Example 79, 4-(((1S,4R,11S,15aR)-11-(3-amino-8-ethynyl-7-fluoroisoquinolin-1-yl)-10,12-difluoro-8-(((2R,7aS)-2-fluorotetrahydro-1H-pyrrolizin-7a(5H)-yl)methoxy)-2,3,4,5,13,14,15,15a-octahydro-1H-1,4-epiminoazepino[1′,2′:1,8]azocino[2,3,4-de]quinazolin-16-yl)methyl)-5-ethyl-1,3-dioxol-2-one]	0.22	1.2			
C#Cc1c(F)ccc2cc(O)cc(-c3nc4c5c(nc(OC[C@@]67CCCN6C[C@H](F)C7)nc5c3F)N3C[C@H]5CC[C@@H]([C@H]3CCC4)N5Cc3oc(=O)oc3C3CCCCC3)c12 [Example 15, 4-cyclohexyl-5-(((6aR,7S,10R)-2-(8-ethynyl-7-fluoro-3-hydroxynaphthalen-1-yl)-1-fluoro-13-(((2R,7aS)-2-fluorotetrahydro-1H-pyrrolizin-7a(5H)-yl)methoxy)-5,6,6a,7,8,9,10,11-octahydro-4H-3,11a,12,14,15-pentaaza-7,10-methanocyclohepta[4,5]cycloocta[1,2,3-de]naphthalen-15-yl)methyl)-1,3-dioxol-2-one]		0.2	7.9	0.25	
C#Cc1c(F)ccc2cc(O)cc(-c3nc4c5c(nc(OC[C@@]67CCCN6C[C@H](F)C7)nc5c3F)N3C[C@H]5CC[C@@H]([C@H]3CC[C@H]4C)N5Cc3oc(=O)oc3CCCCCC)c12 [Example 16, 4-(((4R,6aR,7S,10R)-2-(8-ethynyl-7-fluoro-3-hydroxynaphthalen-1-yl)-1-fluoro-13-(((2R,7aS)-2-fluorotetrahydro-1H-pyrrolizin-7a(5H)-yl)methoxy)-4-methyl-5,6,6a,7,8,9,10,11-octahydro-4H-3,11a,12,14,15-pentaaza-7,10-methanocyclohepta[4,5]cycloocta[1,2,3-de]naphthalen-15-yl)methyl)-5-hexyl-1,3-dioxol-2-one]		0.16	40	0.95	
C#Cc1c(F)ccc2cc(O)cc(-c3nc4c5c(nc(OC[C@@]67CCCN6C[C@H](F)C7)nc5c3F)N3C[C@H]5CC[C@@H]([C@H]3CC[C@H]4C)N5Cc3oc(=O)oc3C3CCCCC3)c12 [Example 17, 4-cyclohexyl-5-(((4R,6aR,7S,10R)-2-(8-ethynyl-7-fluoro-3-hydroxynaphthalen-1-yl)-1-fluoro-13-(((2R,7aS)-2-fluorotetrahydro-1H-pyrrolizin-7a(5H)-yl)methoxy)-4-methyl-5,6,6a,7,8,9,10,11-octahydro-4H-3,11a,12,14,15-pentaaza-7,10-methanocyclohepta[4,5]cycloocta[1,2,3-de]naphthalen-15-yl)methyl)-1,3-dioxol-2-one]		0.2	48	0.161	
C#Cc1c(F)ccc2cccc(-c3nc4c5c(nc(OC[C@@]67CCCN6C[C@H](F)C7)nc5c3F)N3C[C@H]5CC[C@@H]([C@H]3CCC4)N5C(=O)OC(C)OC(=O)CCC)c12 (stereo partly drawn) [Example 25, 1-(butyryloxy)ethyl (6aR,7S,10R)-2-(8-ethynyl-7-fluoronaphthalen-1-yl)-1-fluoro-13-(((2R,7aS)-2-fluorotetrahydro-1H-pyrrolizin-7a(5H)-yl)methoxy)-5,6,6a,7,8,9,10,11-octahydro-4H-3,11a,12,14,15-pentaaza-7,10-methanocyclohepta[4,5]cycloocta[1,2,3-de]naphthalene-15-carboxylate]					Rat Parent % F ([1]; 5 mg/kg): 1%; Rat Parent AUC ([1]; 5 mg/kg): 0.037 µM·h
C#Cc1c(F)ccc2cc(N)cc(-c3nc4c5c(nc(OC[C@@]67CCCN6C[C@H](F)C7)nc5c3F)N3C[C@H]5CC[C@@H]([C@H]3CCC4)N5Cc3oc(=O)oc3CCC)c12 [Example 35, 4-(((6aR,7S,10R)-2-(3-amino-8-ethynyl-7-fluoronaphthalen-1-yl)-1-fluoro-13-(((2R,7aS)-2-fluorotetrahydro-1H-pyrrolizin-7a(5H)-yl)methoxy)-5,6,6a,7,8,9,10,11-octahydro-4H-3,11a,12,14,15-pentaaza-7,10-methanocyclohepta[4,5]cycloocta[1,2,3-de]naphthalen-15-yl)methyl)-5-propyl-1,3-dioxol-2-one]		0.46			Rat Parent % F ([1]; 15 mg/kg): 5%; Rat Parent AUC ([1]; 15 mg/kg): 0.27 µM·h
C#Cc1c(F)ccc2cc(N)cc(-c3nc4c5c(nc(OC[C@@]67CCCN6C[C@H](F)C7)nc5c3F)N3C[C@H]5CC[C@@H]([C@H]3CCC4)N5Cc3oc(=O)oc3CCCCCC)c12 [Example 36, 4-(((6aR,7S,10R)-2-(3-amino-8-ethynyl-7-fluoronaphthalen-1-yl)-1-fluoro-13-(((2R,7aS)-2-fluorotetrahydro-1H-pyrrolizin-7a(5H)-yl)methoxy)-5,6,6a,7,8,9,10,11-octahydro-4H-3,11a,12,14,15-pentaaza-7,10-methanocyclohepta[4,5]cycloocta[1,2,3-de]naphthalen-15-yl)methyl)-5-hexyl-1,3-dioxol-2-one]	0.052	0.49			Rat Parent % F ([1]; 7.5 mg/kg): 1.9%
C#Cc1c(F)ccc2cc(N)cc(-c3nc4c5c(nc(OC[C@@]67CCCN6C[C@H](F)C7)nc5c3F)N3C[C@H]5CC[C@H](N5)[C@H]3CCC4)c12 [Example 69-P, 5-ethynyl-6-fluoro-4-((6aR,7S,10R)-1-fluoro-13-(((2R,7aS)-2-fluorotetrahydro-1H-pyrrolizin-7a(5H)-yl)methoxy)-5,6,6a,7,8,9,10,11-octahydro-4H-3,11a,12,14,15-pentaaza-7,10-methanocyclohepta[4,5]cycloocta[1,2,3-de]naphthalen-2-yl)naphthalen-2-amine]		0.5	0.07	0.5	
